From patent publication EP4667628A1, “SYNTHETIC LETHALITY TO TREAT AUTOSOMAL DOMINANT POLYCYSTIC KIDNEY DISEASE (ADPKD)” (Albert-Ludwigs-Universität Freiburg Körperschaft des …, priority 2024, dated 2025) come the findings set out here.

Where two headings read alike, the source gives them in different places. A value given as a limit tells only on which side of the number the result lay.

Test [1] deals with second independent PKD1 KO clone (#2). Nature of the test: Luminescence-based ATP-dependent cell viability assay (CellTiter-Glo 2.0), dose-response, PKD1 knockout clone #2. The following applies: Mus musculus. As to the method:
(§1) Subculturing of cells was performed twice a week in a 1:10 ratio. Cells were maintained in a humidified incubator at 37°C and 5% CO2. […] The term "wild-type" is used for mIMCD-3 cells that were not edited by CRISPR-Cas9. The original cell line obtained from ATCC was generated from inner medullary collecting ducts of a SV-40 transgenic mouse.^13
(§2) Prior to genome editing, a monoclonal starting cell line was generated by a single cell sorting step.
(§3) After 72 hours cell density was checked with an inverted microscope (Zeiss Axiovert 40CFL). Cells were washed with 10 ml phosphate buffered saline (PBS). […] 10 ml DMEM:F12 with 10% FBS and 1% penicillin/streptomycin were added, cell detachment was facilitated by pipetting up and down multiple times. […] Cell density was diluted to 400,000 cells/ml for each genotype. […] Basins of 1536 well plates were filled with 25 µl (vertical basins) or 40 µl (horizontal basins) H2O in order to prevent evaporation induced edge effects. Confluency was checked after 24 hours with an Evos M5000 imaging system (Invitrogen).
(§4) For the secondary screen and validation experiments, source plates were generated with compounds in 1:2 dilutions allowing for the generation of dose-response-curves. 30 nl of compounds per well were transferred in secondary screen and validation experiments. […] The volume of transferred DMSO was adjusted according to the transferred compound volume. […] After compound transfer, plates were centrifuged (Multifuge 3 s-r, Heraeus) for 10 seconds (1,000 rpm). […] Plates were stored in incubators at 37°C and 5% CO2 for 72 hours. A maximum of two plates was stacked in the incubator. Source plates were sealed with an Agilent Technologies Plateloc heat sealer. Prior to compound transfer source plates were centrifuged (4,200 rpm, 1 min). Sealing was removed with a Brooks XPeel device.
(§5) After 72 hours of compound incubation, plates were allowed to adapt to room temperature for 20 minutes. […] The luminescence signal was allowed to stabilize for 20 min. Luminescence was scanned with a BMG Labtech Pherastar FSX luminescence reader with a measurement interval time of 0.16 s per well. A 1536-well plate adapted aperture was used to minimize cross-talk. Data analysis was performed with GraphPad Prism (version 9). Dose- and genotype-dependent differences in viability were checked for statistical significance by performing a two-way ANOVA (α = 0.05). Difference in protein abundance analyzed by western blot were checked for statistical significance by performing a student's t-test (α = 0.05).

Test [2] relates to monoclonal PKD1 KO mIMCD-3 cell line (clone #1). Nature of the test: Luminescence-based ATP-dependent cell viability assay (CellTiter-Glo 2.0), dose-response, PKD1 knockout clone #1. The note with it: for IC50: Mus musculus; for effect sizes: further MEK-inhibitors tested, PKD1-deficient cells compared to wildtype cells. On the set-up: species or system mouse. As to the method: as §1, §2, §3, §4, §5

Test [3] relates to isogenic wildtype mIMCD-3 cells. Briefly: Luminescence-based ATP-dependent cell viability assay (CellTiter-Glo 2.0), dose-response, isogenic wildtype counter screen. The following applies: Mus musculus. As for the experimental part:
as §1, §2, §3, §4, §5

Setting [4] is: mIMCD3, 72 h, read-out: IC50 PKD1-/- (clone 2) (µM).
[5] abbreviates: mIMCD3, 72 h, read-out: IC50 PKD1-/- (clone 1) (µM).
Where [6] appears, read: mIMCD3, 72 h, read-out: IC50 wildtype (µM).
Setting [7] is: mIMCD3, mIMCD-3 PKD1 knockout clone 2, 72 hours compound incubation, IC50 = concentration that kills 50% of the cells, read-out: IC50 PKD1-/- (clone 2).
Where [8] appears, read: mIMCD3, isogenic wildtype mIMCD-3 control cells, 72 hours compound incubation, read-out: IC50 wildtype.
[9] abbreviates: mIMCD3, mIMCD-3 PKD1 knockout clone 1, 72 hours compound incubation, IC50 = concentration that kills 50% of the cells, read-out: IC50 PKD1-/- (clone 1).

Turning to `O=C(NOC[C@H](O)CO)c1ccc(F)c(F)c1Nc1ccc(I)cc1F` [Number 24, Mirdametinib], the IC50 in test [1] (setting [4]) was found to be 21.8 µM; in test [2] (setting [5]) it was 80 µM.
Take `O=C1C2=C(C(=O)c3ccccc31)[C@H]1Oc3ccccc3[C@H]1CO2` [Number 15, Pterocarpanquinone ((2S,10S)-3,12-dioxapentacyclo[11.8.0.02,10.04,9.015,20]henicosa-1(13),4,6,8,15,17,19-heptaene-14,21-dione)]: the results for the IC50 in test [1] (setting [4]), in test [3] (setting [6]) and in test [2] (setting [5]) were 2.8 µM, 4.45 µM and 3.54 µM, respectively.
As to `O=C(NOC[C@H](O)CO)c1ccc(F)c(F)c1Nc1ccc(I)cc1F` [Number 24, Mirdametinib, reference compound], the effect sizes result in test [2] is listed as “strong effect sizes”.
For `N#CC(C#N)=NNc1ccc(OC(F)(F)F)cc1` [Number 22], the IC50 was determined as 2.42 µM in test [1] (setting [7]), 4.12 µM in test [3] (setting [8]) and 2.89 µM in test [2] (setting [9]).
For `O=C(NOCC1CC1)c1ccc(F)c(F)c1Nc1ccc(I)cc1Cl` [Number 23] the same measures were 7.96 µM, 10.3 µM and 6.21 µM.
For `O=c1c2ccccc2nc(/C=C/c2ccc([N+](=O)[O-])o2)n1-c1ccc(O)cc1` [Number 6, 3-(4-Hydroxyphenyl)-2-[(E)-2-(5-nitro-2-furyl)vinyl]-4(3H)-quinazolinone] the same measures were 2.98 µM, 4.49 µM and 3.17 µM.
`COc1cc(NC(=O)c2ccc([N+](=O)[O-])o2)cc(C(F)(F)F)c1` [Number 9, N-[3-Methoxy-5-(trifluoromethyl)phenyl]-5-nitro-2-furamide]: the IC50 in test [1] (setting [7]) amounted to 15.5 µM; in test [3] (setting [6]), 18.4 µM; in test [2] (setting [9]), 15 µM.
Regarding `S=C(SSC(=S)N1CCOCC1)N1CCOCC1` [Number 21, Dimorpholinethiuram disulfide], the IC50 in test [1] (setting [7]) amounted to 3.94 µM; in test [3] (setting [8]), 19.8 µM; in test [2] (setting [9]) it was 5.3 µM.
For the molecule `COc1cc(F)c(F)c(Nc2ccc(I)cc2F)c1NS(=O)(=O)C1(C[C@H](O)CO)CC1` [Number 14, Refametinib], the IC50 in test [1] (setting [7]), in test [3] (setting [6]) and in test [2] (setting [9]) was over 30 µM each time.
Take `C=CCN1C(=O)CS/C1=N\NC(=S)NC` [Number 1, 1-methyl-3-[(Z)-(4-oxo-3-prop-2-enyl-1,3-thiazolidin-2-ylidene)amino]thiourea]: the IC50 in test [1] (setting [7]) was 10 µM; in test [3] (setting [8]) it was over 30 µM; in test [2] (setting [9]), 11.5 µM.
For `CCOC(=O)CCNc1cc(N2CCc3ccccc3CC2)nc(-c2ccccn2)n1` [Number 17] the same measures were 6.08 µM, 7.69 µM and 3.41 µM.
For `c1ccc(CNc2cc(-c3ccccc3)nc(-c3ccccn3)n2)cc1` [Number 10, N-benzyl-6-phenyl-2-pyridin-2-ylpyrimidin-4-amine] the same measures were 6.03 µM, 7.73 µM and 3.24 µM.
For `COc1cc2ncnc(Nc3cccc(Cl)c3C)c2cc1OC` [Number 7, N-(3-Chloro-2-methylphenyl)-6,7-dimethoxy-4-quinazolinamine] the same measures were 12.1 µM, over 30 µM and 17 µM.
With `N#CC(C#N)=NNc1cccc(Cl)c1` [Number 4], the IC50 in test [1] (setting [7]) came to 2.85 µM; in test [3] (setting [8]), 4.31 µM; in test [2] (setting [9]) it was 3.54 µM.
For `CN(C)S(=O)(=O)c1cc(NC(=O)c2ccc([N+](=O)[O-])o2)ccc1Cl` [Number 12, N-[4-Chloro-3-(dimethylsulfamoyl)phenyl]-5-nitro-2-furamide] the same measures were 8.51 µM, 11.2 µM and 7.09 µM.
For `Fc1ccccc1-c1cc(NCCc2c[nH]c3ccccc23)nc(-c2ccccn2)n1` [Number 11, 6-(2-Fluorophenyl)-N-[2-(1H-indol-3-yl)ethyl]-2-(2-pyridinyl)-4-pyrimidinamine] the same measures were 6.43 µM, 9.68 µM and 3.05 µM.
For `Cn1c(/C=C/c2ccc([N+](=O)[O-])o2)nc2ccccc2c1=O` [Number 5, 3-Methyl-2-[(E)-2-(5-nitro-2-furyl)vinyl]-4(3H)-quinazolinone] the same measures were 2.64 µM, 4.01 µM and 2.39 µM.
For `Cc1c(Cl)cccc1Nc1ncnc2cc(Cl)ccc12` [Number 3, 7-Chloro-N-(3-chloro-2-methylphenyl)-4-quinazolinamine], the IC50 in test [1] (setting [7]) was 14 µM; in test [3] (setting [8]) it was over 30 µM; in test [2] (setting [9]), over 30 µM.
As to `CC(=O)N(C)c1ccc(Nc2nc(NC3CCC3)c3[nH]cnc3n2)cc1` [Number 18, N-(4-{[6-(Cyclobutylamino)-7H-purin-2-yl]amino}phenyl)-N-methylacetamide], the IC50 amounted to 2.53 µM in test [1] (setting [7]), 5.93 µM in test [3] (setting [8]) and 3.07 µM in test [2] (setting [9]).
Regarding `Cn1c(=O)c(F)c(Nc2ccc(I)cc2F)c2c(=O)n(C[C@@H](O)CO)cnc21` [Number 25, Tak-733, reference compound], in test [2], the effect sizes entry was “strong effect sizes”.
Turning to `Cc1nc(Nc2ncc(C(=O)Nc3c(C)cccc3Cl)s2)cc(N2CCN(CCO)CC2)n1` [Number 20], the IC50 in test [1] (setting [7]) turned out to be 1.42 µM; in test [3] (setting [8]), 3.74 µM; in test [2] (setting [9]) it was 2.32 µM.
For `Cn1c(=O)c(F)c(Nc2ccc(I)cc2F)c2c(=O)n(C[C@@H](O)CO)cnc21` [Number 25], the IC50 was 9.51 µM in test [1] (setting [7]), 41.9 µM in test [3] (setting [8]) and 16.9 µM in test [2] (setting [9]).
For `O=C(Nc1ccccc1C(=O)NCc1ccccn1)c1ccc([N+](=O)[O-])o1` [Number 8, 5-Nitro-N-{2-[(2-pyridinylmethyl)carbamoyl]phenyl}-2-furamide] the same measures were 19.4 µM, 24.5 µM and 19.4 µM.
For the molecule `COc1ccc(Cc2c(N)nc(-c3ccccn3)nc2N)cc1` [Number 19, 5-(4-Methoxybenzyl)-2-(2-pyridinyl)-4,6-pyrimidinediamine], the IC50 in test [1] (setting [7]) was 24.9 µM; in test [3] (setting [8]) it was 36.5 µM; in test [2] (setting [9]) it was 20 µM.
For `CC(C)c1cc(N2CCCCC2)nc(-c2ccccn2)n1` [Number 13, 4-Piperidin-1-yl-6-propan-2-yl-2-pyridin-2-ylpyrimidine] the same measures were 18.7 µM, 28.7 µM and 6.75 µM.
